Assays:
[1] = Cytotoxicity against human BEAS2B cells by MTT assay; type: cell-based; settings: BEAS-2B
A549 [2] = assay: Induction of apoptosis in human A549 cells assessed as early apoptotic cells at 5 uM after 6 hrs by Annexin-V-FITC/Propidium iodide staining based flow cytometric analysis (reference value: 3.83 +/- 0.49%); type: functional
[3] = target: RAF proto-oncogene serine/threonine-protein kinase (Homo sapiens) (UniProt P04049); assay: Inhibition of C-Raf in human A549 cells after 48 hrs by Western blot analysis; type: cell-based
RAF proto-oncogene serine/threonine-protein kinase (Homo sapiens), sequence (P04049 whole entry): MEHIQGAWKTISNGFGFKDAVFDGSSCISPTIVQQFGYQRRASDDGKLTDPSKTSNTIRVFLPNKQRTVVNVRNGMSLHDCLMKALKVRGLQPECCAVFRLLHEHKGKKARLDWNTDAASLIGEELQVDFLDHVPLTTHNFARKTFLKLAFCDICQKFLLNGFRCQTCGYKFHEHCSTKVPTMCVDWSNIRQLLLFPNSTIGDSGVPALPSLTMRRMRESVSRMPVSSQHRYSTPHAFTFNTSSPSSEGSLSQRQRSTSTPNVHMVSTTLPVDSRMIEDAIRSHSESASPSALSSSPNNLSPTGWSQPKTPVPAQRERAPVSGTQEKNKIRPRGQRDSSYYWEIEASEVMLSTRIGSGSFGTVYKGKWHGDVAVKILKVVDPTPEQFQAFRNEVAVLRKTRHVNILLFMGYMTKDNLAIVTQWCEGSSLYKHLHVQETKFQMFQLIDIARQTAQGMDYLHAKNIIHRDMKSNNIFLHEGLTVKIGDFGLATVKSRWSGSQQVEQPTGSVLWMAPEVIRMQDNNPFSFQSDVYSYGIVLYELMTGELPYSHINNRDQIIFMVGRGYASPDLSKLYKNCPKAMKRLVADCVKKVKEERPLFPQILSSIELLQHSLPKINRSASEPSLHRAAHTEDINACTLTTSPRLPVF

[4] = Antiproliferative activity against human MGC803 cells by MTT assay; type: functional, cell-based; settings: MGC-803
A549 [5] = assay: Cell cycle arrest in human A549 cells assessed as accumulation at G0/G1 phase at 20 uM by propidium iodide staining based flow cytometric analysis (reference value: 63.82 +/- 2.66%); type: functional
A549 [6] = assay: Cell cycle arrest in human A549 cells assessed as accumulation at S phase at 10 uM by propidium iodide staining based flow cytometric analysis (reference value: 23.41 +/- 2.19%); type: functional
A549 [7] = assay: Induction of apoptosis in human A549 cells assessed as necrotic cells at 5 uM after 48 hrs by Annexin-V/Propidium iodide dual staining based flow cytometric analysis (reference value: 2.57 +/- 0.39%); type: functional
A549 [8] = assay: Induction of apoptosis in human A549 cells assessed as increase in ROS production at 20 uM after 6 hrs by DCF staining based luminescence spectrometric analysis relative to control; type: functional
A549 [9] = assay: Induction of apoptosis in human A549 cells assessed as necrotic cells at 20 uM after 48 hrs by Annexin-V/Propidium iodide dual staining based flow cytometric analysis (reference value: 2.57 +/- […]%); type: functional
A549 [10] = assay: Induction of apoptosis in human A549 cells assessed as downregulation of Bcl-2 expression after 48 hrs by Western blot analysis; type: functional, cell-based
A549 [11] = assay: Induction of apoptosis in human A549 cells assessed as viable cells at 5 uM after 48 hrs by Annexin-V-FITC/Propidium iodide staining based flow cytometric analysis (reference value: 92.46 +/- 4.23%); type: functional; settings: A549, 48 h, read-out: Activity
A549 [12] = assay: Induction of apoptosis in human A549 cells assessed as early apoptotic cells at 10 uM after 6 hrs by Annexin-V-FITC/Propidium iodide staining based flow cytometric analysis (reference value: 3.83 +/- 0.49%); type: functional
A549 [13] = assay: Induction of apoptosis in human A549 cells assessed as viable cells at 5 uM after 6 hrs by Annexin-V-FITC/Propidium iodide staining based flow cytometric analysis (reference value: 95.48 +/- 2.03%); type: functional; settings: A549, 6 h, read-out: Activity
A549 [14] = assay: Cell cycle arrest in human A549 cells assessed as accumulation at G2/M phase at 10 uM by propidium iodide staining based flow cytometric analysis (reference value: 12.77 +/- 1.55%); type: functional
A549 [15] = assay: Cell cycle arrest in human A549 cells assessed as accumulation at S phase at 20 uM by propidium iodide staining based flow cytometric analysis (reference value: 23.41 +/- 2.19%); type: functional

With COc1cc2ncnc(NCc3cccc(NC(=O)Nc4ccc(C(C)(C)C)cc4)c3)c2cc1OC the IC50 [1] was 26.5 µM, the Activity (A549 [2]) was 4.21% and the inhibition [3] was “Dose-dependent effect”. For the same compound, the IC50 [4] was 6.79 µM, the Activity (A549 [5]) was 95.33% and the Activity (A549 [6]) was 6.91%. For the same compound, the Activity (A549 [7]) was 14.2%, the Activity (A549 [8]) was 54.3% and the Activity (A549 [9]) was 42.2%. The Activity (A549 [10]) was “Dose-dependent effect”, the viability at 5 µM (A549 [11]) was 75.4% and the Activity (A549 [12]) was 12.2%. It also gave a viability at 5 µM (A549 [13]) of 89.4%, an Activity (A549 [14]) of 7.65% and an Activity (A549 [15]) of 3.6%.
